Source: the NIST ThermoML archive (doi:10.1021/acs.jced.8b00349)

Key:
[1] = mn = molality of the nth substance listed, in mol/kg; settings: 101 kPa, Liquid; for viscosity: Falling or rolling sphere viscometry; for speed of sound: Frequency=3 MHz, Single path-length method; for mass density: Vibrating tube method
[2] = 101 kPa, Liquid, Falling or rolling sphere viscometry

NCC(=O)O [2-aminoacetic acid] + O
[1], m1 = 0.06
Settings	mass density [kg/m3]	speed of sound [m/s]	viscosity [mPa·s]
293.15 K	1000.19	1485.8	1.012
298.15 K	999.024	1499.6	0.908
303.15 K	997.613	1511.8	0.811
308.15 K	995.985	1522.4	0.733
313.15 K	994.125	1531.4	0.666

O [water]
[2]
Settings	viscosity [mPa·s]
293.15 K	1.005
298.15 K	0.894
303.15 K	0.801
308.15 K	0.723
313.15 K	0.656

O [water] + C[n+]1ccn(CCCCCn2cc[n+](C)c2)c1.[Br-].[Br-]
[1], m2 = 0
Settings	speed of sound [m/s]	viscosity [mPa·s]
293.15 K	–	1.005
298.15 K	–	0.894
303.15 K	–	0.801
308.15 K	–	0.723
313.15 K	1529.2	0.656

O [water] + C[n+]1ccn(CCCCn2cc[n+](C)c2)c1.[Br-].[Br-]
[1], m2 = 0
Settings	speed of sound [m/s]	viscosity [mPa·s]
293.15 K	–	1.005
298.15 K	–	0.894
303.15 K	–	0.801
308.15 K	–	0.723
313.15 K	1529.2	0.656

O [water] + C[n+]1ccn(CCCn2cc[n+](C)c2)c1.[Br-].[Br-]
[1], m2 = 0
Settings	speed of sound [m/s]	viscosity [mPa·s]
293.15 K	–	1.005
298.15 K	–	0.894
303.15 K	–	0.801
308.15 K	–	0.723
313.15 K	1529.2	0.656
